Entries after “also recorded” stand apart in the source; their conditions may differ.
Key:
pleurisy in mice = test: Murine model of pleurisy; assay type: in vivo; conditions: for neutrophil cells, carrageenan pleurisy / total cells, carrageenan pleurisy: MV 8612 30 and 60, MV 8608 30, i.p.
Experimental: To assess further the anti-inflammatory action of MV 8612 and MV 8608, their effects against the inflammatory responses caused by several mediators of inflammation in a murine model of pleurisy were tested (Saleh et al., 1996, Br. J. Pharmacol. 118:811–819). In addition, both compounds were tested against the increase of vascular permeability caused by bradykinin in the rat skin (Neves et al., 1993b, Phytotherapy Research. 7:356–362).

R-type Ca^2+ channel [1] = test: Fura-2 [Ca]i, embryonic chick heart cells; assay type: cell-based; conditions: 10^−9M, sustained depolarization (KCl 30 mM), PAF 10^−9M, ET-1 10^−9M
Source text: (§1) This sustained increase of Ca^2+ induced by depolarization of the cell membrane or hormones such as PAF, ET-1 and bradykinin is due to the increase of Ca^2+ influx through the R-type Ca^2+ channels at the sarcolemmal membrane and/or the nuclear membrane (Bkaily G., 1994, supra; 1996, supra; 1997a–d, supra). Using Ca^2+ fluorescence probes Fura-2 or Fluo-3 and 2 and three-dimension Ca^2+ imaging techniques (Bkaily G., 1994, supra; 1996, supra; 1997a–d, supra), the effect of hormones and drugs could be easily tested. These two methods are used with single cells of different types as described above.
(§2) In another series of experiments we tested the effect of MV8608 (10^−9M) on R-type Ca^2+ channels stimulation-induced sustained increase of total intracellular Ca^2+ by sustained depolarization (FIGS. 15 to 19), by PAF (10^−9M) (FIGS. 16 to 19 and 21 to 22), by ET-1 (10^−9M) (FIGS. 16 and 19) and bradykinin (BK, 10^−6M) (FIGS. 20 and 21), in embryonic chick heart cells (FIGS. 15, 16, 19 and 20), 19-week-old human fetal heart cells (FIGS. 15, 17, 18 and 20), rabbit aortic vascular smooth muscle (VSM) cells (FIGS. 20 and 21), human aortic VSM cell-line (FIG. 23) and freshly isolated (FIG. 22) as well as in freshly isolated aortic endothelial cells (FIG. 22). […]

rat paw oedema = test: Rat paw oedema; assay type: in vivo; conditions: for des-Arg^9-bradykinin-induced paw oedema: 10 and 100 nmol/paw co-injected, rats treated with LPS
Experimental: (§3) In this experiment (N=5 to 6 animals per group), the anti-oedemagenic action of compounds MV 8608 and MV 8612 against bradykinin and several mediators which are reported to be involved in the inflammatory processes, was evaluated. The procedures used to perform these experiments have been reported elsewhere (Neves et al., 1993, Eur. J. Pharmacol. 243:213–219; Campos et al., 1995, Br. J. Pharmacol. 114:1005–1013; Campos et al., 1996, Br. J. Pharmacol. 117:793–798; Eur. J. Pharmacol. 316:227–286). […] As reported previously, in rats treated […] prior to a systemic injection of LPS, both B1 and B2 kinin selective agonists caused marked oedema formation (FIGS. 37C and D (Campos et al., 1996, supra)).

mouse paw oedema = test: Mouse paw oedema; assay type: in vivo, mice
Experimental: as §3
When tested in mice, MV 8612 (40 to 160 nmol/paw) inhibited bradykinin and carrageenan-induced paw oedema in mice in a dose-dependent manner (FIGS. 46A and B).

R-type Ca^2+ channel [2] = test: Fura-2 [Ca]i, rabbit aortic vascular smooth muscle cells; assay type: cell-based; conditions: 10^−9M
Source text: as §1, §2

L-type Ca^2+ current = test: Whole-cell voltage clamp, L-type Ca2+ current in heart cells of chick embryos; assay type: cell-based; conditions: for overall effect on L-type Ca2+ channel: summary in words
Experimental: Single cells of different types in culture were prepared from biopsies of human, chick and rabbit. Known and accepted methods for the isolation of fast Na^+ current, T, L and R-type Ca^2+ channels as well as delayed outward K^+ current were used (Bkaily 1994, supra).
The compounds to be tested are added to the appropriate extracellular solution after recording a stable ionic current or normal steady-state level of […]. The effect of different concentrations of compounds are tested on the different type of current and [Ca]i of the different cell types. The effect of each concentration of the compounds in function of the time of exposure are then determined. Once the steady-state effect is reached, the second concentration is added, etc.
In another series of experiments (n=5), the effect of different concentrations of MV8608 (10^−11 to 10^−6M) were tested on the L-type ICa of heart cells of chick embryos using the whole-cell and experimental conditions and protocols described elsewhere by the inventors (Bkaily G. et al., 1993, supra). As for the T-type ICa, the L-type ICa was not affected by 10^−11 to 10^−10M MV8608.
In another series of experiments (n=4), we tested the effect of MV8612 on the L-type Ca^2+ current (ICa) in chick embryonic heart cells using the whole-cell voltage clamp technique referred to above. Superfusion with 10^−9M of MV8612 decreased ICa amplitude by 10% and increasing the concentration of the compound up to 10^−8M further decreased the current amplitude by 25%. Higher concentration of MV8612 (10^−7M) decreased the ICa amplitude by 62%.

[3] = tested on: human lymphocyte proliferation; test: Human lymphocyte proliferation in vitro; assay type: cell-based; conditions: for inhibition of human lymphocyte proliferation: MV 8612 0.02 to 0.32 M, MV 8608 14.5 to 116 M
Experimental: In a separate series of experiments, compounds MV 8612 and MV 8608 were tested to analyze whether they interfered with human lymphocyte proliferation “in vitro”. These experiments were carried out as reported previously (Moraes et al., 1996, Eur. J. Pharmacol. 312:333–339).

[4] = 100 nmol/paw, rats treated 30 days prior
[5] = 40 to 160 nmol/paw co-injection

C[C@]12CC[C@H](O)CC1=CC[C@@H]1[C@@H]2CC[C@]2(C)[C@H]3[C@@H]4OC[C@H]3O[C@@H](O)[C@]12O4 [MV8608, (15R, 16R, 20S)-14, 16:15,20:16,21-triepoxi-15,16-seco 14β, 17α-pregn-5-ene-3β, 15-diol]
mononuclear cells influx, PAF pleurisy (pleurisy in mice; 30, i.p.): antagonised significantly
plasma extravasation, PAF pleurisy (pleurisy in mice; 30, i.p.): antagonised significantly
neutrophil cells, carrageenan pleurisy (pleurisy in mice): inhibited significantly
total cells, carrageenan pleurisy (pleurisy in mice): inhibited significantly
sustained increase of [Ca]i (R-type Ca^2+ channel [1]): blockade
PAF-induced paw oedema (rat paw oedema; 100 nmol/paw): consistently inhibited
PGE2-induced paw oedema (rat paw oedema; 100 nmol/paw): partially inhibited
substance P-induced paw oedema (rat paw oedema; 100 nmol/paw): unaffected
bradykinin-induced paw oedema (rat paw oedema; [4]): significantly inhibited
des-Arg^9-BK-induced paw oedema (rat paw oedema; [4]): significantly inhibited
carrageenan-induced paw oedema (rat paw oedema; 10 and 100 nmol/paw): significantly prevented
dextran-induced paw oedema (rat paw oedema; 10 and 100 nmol/paw): significantly prevented
histamine-induced paw oedema (rat paw oedema; 10 and 100 nmol/paw): significantly prevented
potentiation of paw oedema by low dose des-Arg^9-BK plus PAF (rat paw oedema; 10 and 100 nmol/paw): prevented the potentiation
potentiation of paw oedema by low dose des-Arg^9-BK plus PGE2 (rat paw oedema; 10 and 100 nmol/paw): prevented the potentiation
serotonin-induced paw oedema (rat paw oedema; 10 and 100 nmol/paw): significantly prevented
des-Arg^9-bradykinin-induced paw oedema (rat paw oedema): dose-related inhibition
ovalbumin-induced paw oedema (rat paw oedema; 10 and 100 nmol/paw, actively sensitised animals): inhibited significantly
bradykinin-induced hindpaw oedema (rat paw oedema; 10 and 100 nmol/paw, animals treated with LPS): no significant effect
histamine-induced paw oedema (mouse paw oedema; 7.5 and 15, i.p.): dose-related inhibition
serotonin-induced paw oedema (mouse paw oedema; 7.5 and 15, i.p.): dose-related inhibition
bradykinin-induced paw oedema (mouse paw oedema; 7.5 and 15, i.p., 30 min prior): unaffected
sustained increase of [Ca]i (R-type Ca^2+ channel [2]; BK 10^−6M and PAF 10^−9M): blockade
change of L-type ICa amplitude effect at higher concentration (L-type Ca^2+ current; 5×10^−7M): further slight increase
decrease of L-type ICa amplitude (L-type Ca^2+ current; 10^−9M): 10%
effect on L-type ICa (L-type Ca^2+ current; 10^−11 to 10^−10M): not affected
overall effect on L-type Ca2+ channel (L-type Ca^2+ current): very weak depressor; also recorded: relative weak depressing effect
inhibition of human lymphocyte proliferation [3]: graded inhibition

COC1CC(OC2C(C)OC(O[C@H]3CC[C@@]4(C)C(=CC[C@@H]5[C@@H]4CC[C@]4(C)[C@H]6[C@@H]7OC[C@H]6O[C@@H](O)[C@]54O7)C3)CC2OC)OC(C)C1OC1CC(OC)C(OC2CC(OC)C(OC3OC(C)C(OC(C)=O)C(OC)C3OC(C)=O)C(C)O2)C(C)O1 (stereo partly drawn) [MV8612]
plasma extravasation, carrageenan pleurisy (pleurisy in mice; 30 and 60, i.p., 1 h prior): significantly inhibited
neutrophil cells, carrageenan pleurisy (pleurisy in mice): significantly inhibited
total cells, carrageenan pleurisy (pleurisy in mice): significantly inhibited
inflammatory response caused by PAF acether (pleurisy in mice; same range of dose, i.p.): did not affect significantly
sustained increase of [Ca]i (R-type Ca^2+ channel [1]): blockade
oedema by bradykinin plus PAF (rat paw oedema; 10 nmol/paw): did not interfere
oedema by low dose bradykinin plus PGE2 (rat paw oedema; 10 nmol/paw): significantly inhibited
oedema by low dose bradykinin plus calcitonin gene related peptide (rat paw oedema; 10 nmol/paw): significantly inhibited
oedema by low dose bradykinin plus prostacyclin (rat paw oedema; 10 nmol/paw): significantly inhibited
PAF-mediated paw oedema (rat paw oedema; 10 and 100 nmol/paw): only a minimal inhibition
PGE2-induced paw oedema (rat paw oedema; 10 and 100 nmol/paw): dose-dependently inhibited
bradykinin-induced paw oedema (rat paw oedema; 10 and 100 nmol/paw): significantly inhibited
carrageenan-induced paw oedema (rat paw oedema; 10 and 100 nmol/paw): dose-dependently inhibited
substance P-mediated paw oedema (rat paw oedema; 10 and 100 nmol/paw): only a minimal inhibition
tyr^8-bradykinin-induced paw oedema (rat paw oedema; 10 and 100 nmol/paw): significantly inhibited
des-Arg^9-bradykinin-induced paw oedema (rat paw oedema): no significant effect
bradykinin-induced oedema in animals treated with cyprohetadine or compound 48/80 (rat paw oedema; intraperitoneal injection (FIG. 44)): dose-related inhibition was still observed
duration of inhibition of bradykinin oedema (rat paw oedema; subplantar): at least 2 h
onset of inhibition of bradykinin oedema (rat paw oedema; subplantar): 30 min
bradykinin oedema in controlateral paw treated with saline (rat paw oedema; systemic effect of subplantar injection): significant anti-oedemagenic action
histamine-induced paw oedema (mouse paw oedema; 7.5 and 15, i.p.): no significant effect
serotonin-induced paw oedema (mouse paw oedema; 7.5 and 15, i.p.): no significant effect
bradykinin-induced paw oedema (mouse paw oedema; 7.5 and 15, i.p., 30 min prior): dose-dependent inhibition
cellulose sulphate-induced paw oedema (mouse paw oedema; 7.5 and 15, i.p., 30 min prior): dose-dependent inhibition
PAF-acether-induced oedema (mouse paw oedema; 40 to 160 nmol/paw): failed to affect significantly
serotonin-induced oedema (mouse paw oedema; 40 to 160 nmol/paw): failed to affect significantly
bradykinin-induced paw oedema (mouse paw oedema; [5]): inhibited
carrageenan-induced paw oedema (mouse paw oedema; [5]): inhibited
sustained increase of [Ca]i (R-type Ca^2+ channel [2]; sustained depolarization and ET-1 10^−9M): blockade
decrease of L-type ICa amplitude (L-type Ca^2+ current; 10^−7M): 62%
decrease of L-type ICa amplitude (L-type Ca^2+ current; 10^−8M): 25%
decrease of L-type ICa amplitude (L-type Ca^2+ current; 10^−9M): 10%
overall effect on L-type Ca2+ channel (L-type Ca^2+ current): more potent L-type Ca^2+ channel antagonist properties than that of MV8608
inhibition of human lymphocyte proliferation [3]: graded inhibition
potency ratio MV 8612 versus MV 8608, lymphocyte proliferation ([3]; more potent): about 570 fold
